{"source": "patent US11040949B2", "about": "“Compounds affecting pigment production and methods for treatment of bacterial diseases” (Versitech Limited, priority 2017, dated 2021)"}
{"test_system": "S. aureus USA300", "experiment": "In vitro staphyloxanthin production inhibition by NP-16 analogues", "assay_type": "cell-based, Staphylococcus aureus", "details": "S. aureus USA300, methanol extract OD 450 nm, 300 nM to 700 nM", "description": "Evaluation of NP-16 analogues in Staphyloxanthin production\nThe in vitro pigment inhibition studies were performed by S. aureus USA300 cultured in BHI with or without the presence of inhibitor compounds at 37° C. and 250 rpm for 36-48 hours. The bacteria were washed twice with PBS prior to the staphyloxanthin purification with methanol. The OD of the extracts were monitor at 450 nm using DTX880 multi-plate reader spectrophotometer (Beckman). The concentration range tested for the compounds were between 300 nM to 700 nM, and control groups were added with equal volume of DMSO.\nThe cytotoxicity of NP-16 and some of its analogues was tested against Raw 264.7 cells, and the cell tolerance of each compounds were documented in Table 3. Along with the in vitro staphyloxanthin production of the NP-16 analogues were being tested, the compounds can exert staphyloxanthin production inhibition. The staphyloxanthin from the overnight-cultured bacteria were extracted with methanol and quantified in via spectrophotometry. The results were presented in relative ratio to NP-16 in both the inhibition ratio as well as the TC50 (concentration for decreasing cell viability by 50%) in Table 3 (sample names correspond to those listed in Table 1)."}
{"smiles": "O=C(/C=C/c1ccccc1)Nc1ccc(S(=O)(=O)N2CCCCC2)cc1", "note": "[NP16-XL-010, 3-phenyl-N-[4-(1-piperidine-1-sulfonyl)-phenyl]acrylamide]", "Relative ratio to NP16 based on inhibition ratio": 1.43}
{"smiles": "CC(=O)Oc1ccc(/C=C/C(=O)Nc2ccc(S(=O)(=O)N3CCCCC3)cc2)cc1", "note": "[NP16-XL-011, 3-(4-acetoxyl-phenyl)-N-[4-(1-piperidine-1-sulfonyl)phenyl]-acrylamide]", "Relative ratio to NP16 based on inhibition ratio": 1.31}
{"smiles": "CC(=O)Oc1cccc(/C=C/C(=O)Nc2ccc(S(=O)(=O)N3CCCCC3)cc2)c1", "note": "[NP16-XL-012, 3-(5-acetoxyl-phenyl)-N-[4-(1-piperidine-1-sulfonyl)phenyl]-acrylamide]", "Relative ratio to NP16 based on inhibition ratio": 1.16}
{"smiles": "CC(=O)Oc1ccccc1/C=C/C(=O)Nc1ccc(S(=O)(=O)N2CCCCC2)cc1", "note": "[NP16-XL-013, 3-(6-acetoxyl-phenyl)-N-[4-(1-piperidine-1-sulfonyl)phenyl]-acrylamide]", "Relative ratio to NP16 based on inhibition ratio": 0.28}
{"smiles": "O=C(/C=C/c1ccc(Br)cc1)Nc1ccc(S(=O)(=O)N2CCCCC2)cc1", "note": "[NP16-XL-014, 3-(4-bromophenyl)-N-[4-(1-piperidine-1-sulfonyl)phenyl]-acrylamide]", "Relative ratio to NP16 based on inhibition ratio": 0.74}
{"smiles": "O=C(/C=C/c1cccc(Br)c1)Nc1ccc(S(=O)(=O)N2CCCCC2)cc1", "note": "[NP16-XL-015, 3-(5-bromophenyl)-N-[4-(1-piperidine-1-sulfonyl)phenyl]-acrylamide]", "Relative ratio to NP16 based on inhibition ratio": 1.18}
{"smiles": "Cc1ccc(/C=C/C(=O)Nc2ccc(S(=O)(=O)N3CCCCC3)cc2)cc1", "note": "[NP16-XL-017, 3-(4-methylphenyl)-N-[4-(1-piperidine-1-sulfonyl)phenyl]-acrylamide]", "Relative ratio to NP16 based on inhibition ratio": 0.09}
{"smiles": "Cc1ccccc1/C=C/C(=O)Nc1ccc(S(=O)(=O)N2CCCCC2)cc1", "note": "[NP16-XL-018, 3-(6-methylphenyl)-N-[4-(1-piperidine-1-sulfonyl)phenyl]-acrylamide]", "Relative ratio to NP16 based on inhibition ratio": 2.48}
{"smiles": "O=C(/C=C/c1ccc(Br)cc1)Nc1ccc(S(=O)(=O)N2CCCc3ccccc32)cc1", "note": "[NP16-XL-029, 3-(4-bromophenyl)-N-[4-(1,2,3,4--tetra-hydroquinoline-1-sulfonyl)phenyl]-acrylamide]", "Relative ratio to NP16 based on inhibition ratio": 0.53}
{"smiles": "O=C(/C=C/c1ccccc1)Nc1ccc(S(=O)(=O)N2CCCc3ccccc32)cc1", "note": "[NP16-XL-030, 3-phenyl-N-[4-(1,2,3,4--tetra-hydroquinoline-1-sulfonyl)phenyl]-acrylamide]", "Relative ratio to NP16 based on inhibition ratio": 1.26}
{"smiles": "O=C(/C=C/c1ccc(Br)cc1)Nc1ccc(S(=O)(=O)N2CCc3ccccc3C2)cc1", "note": "[NP16-XL-031, 3-(4-bromophenyl)-N-[4-(3,4-dihydro-1H-isoquinoline-2-sulfonyl)phenyl]-acrylamide]", "Relative ratio to NP16 based on inhibition ratio": 0.23}
{"smiles": "O=C(/C=C/c1ccccc1)Nc1ccc(S(=O)(=O)N2CCc3ccccc3C2)cc1", "note": "[NP16-XL-032, 3-phenyl-N-[4-(3,4-dihydro-1H-isoquinoline-2-sulfonyl)phenyl]-acrylamide]", "Relative ratio to NP16 based on inhibition ratio": 1.17}
{"smiles": "O=C(/C=C/c1ccccc1)Nc1ccc(S(=O)(=O)N(C(=O)/C=C/c2ccccc2)c2ccccc2)cc1", "note": "[NP16-XL-036, 3-phenyl-N-{[4-(N-phenyl-3-phenylprop-2-enamido)sulfonyl]-phenyl}-acrylamide]", "Relative ratio to NP16 based on inhibition ratio": 3.04}
{"smiles": "O=C(/C=C/c1ccccc1)Nc1ccc(S(=O)(=O)Nc2ccccc2)cc1", "note": "[NP16-XL-037, 3-phenyl-N-[(4-phenylsulfamoyl)-phenyl]acrylamide]", "Relative ratio to NP16 based on inhibition ratio": 3.02}
{"smiles": "O=C(/C=C/c1ccccc1Br)Nc1ccc(S(=O)(=O)Nc2ccccc2)cc1", "note": "[NP16-XL-038, 3-(6-bromophenyl)-N-[(4-phenylsul-famoyl)phenyl]-acrylamide]", "Relative ratio to NP16 based on inhibition ratio": 3.23}
{"smiles": "O=C(/C=C/c1ccccc1Br)Nc1ccc(S(=O)(=O)N(C(=O)/C=C/c2ccccc2Br)c2ccccc2)cc1", "note": "[NP16-XL-039, 3-(6-bromophenyl)-N-{[4-(N-phenyl-3-6-bromophenyl-prop-2-enamido)-sulfonyl]phenyl}-acrylamide]", "Relative ratio to NP16 based on inhibition ratio": 3.23}
{"smiles": "O=C(/C=C/c1c(F)cccc1F)Nc1ccc(S(=O)(=O)Nc2ccccc2)cc1", "note": "[NP16-XL-040, 3-(2,6-difluoro-phenyl)-N-[(4-phenylsulfamoyl)-phenyl]acrylamide]", "Relative ratio to NP16 based on inhibition ratio": 2.51}
{"smiles": "O=C(/C=C/c1ccccc1F)Nc1ccc(S(=O)(=O)Nc2ccccc2)cc1", "note": "[NP16-XL-041, 3-(6-fluorophenyl)-N-[(4-phenyl-sulfamoyl)phenyl]-acrylamide]", "Relative ratio to NP16 based on inhibition ratio": 3.17}
{"smiles": "O=C(/C=C/c1cccnc1)Nc1ccc(S(=O)(=O)Nc2ccccc2)cc1", "note": "[NP16-XL-042, 3-(pyridin-3-yl)-N-[(4-phenyl-sulfamoyl)phenyl]-acrylamide]", "Relative ratio to NP16 based on inhibition ratio": 1.44}
{"smiles": "N#Cc1ccccc1/C=C/C(=O)Nc1ccc(S(=O)(=O)Nc2ccccc2)cc1", "note": "[NP16-XL-043, 3-(6-cyanophenyl)-N-[(4-phenyl-sulfamoyl)phenyl]-acrylamide]", "Relative ratio to NP16 based on inhibition ratio": 3.23}
{"smiles": "O=C(/C=C/c1ccccn1)Nc1ccc(S(=O)(=O)Nc2ccccc2)cc1", "note": "[NP16-XL-044, 3-(pyridin-2-yl)-N-[(4-phenyl-sulfamoyl)phenyl]-acrylamide]", "Relative ratio to NP16 based on inhibition ratio": 2.47}
{"smiles": "O=C(/C=C/c1c(F)cccc1F)Nc1ccc(S(=O)(=O)N2CCCCC2)cc1", "note": "[NP16-XL-045, 3-(2,6-difluoro-phenyl)-N-[4-(1-piperidine-1-sulfonyl)phenyl]-acrylamide]", "Relative ratio to NP16 based on inhibition ratio": 0.88}
{"smiles": "N#Cc1ccccc1/C=C/C(=O)Nc1ccc(S(=O)(=O)N2CCCCC2)cc1", "note": "[NP16-XL-047, 3-(6-cyanophenyl)-N-[4-(1-piperidine-1-sulfonyl)phenyl]-acrylamide]", "Relative ratio to NP16 based on inhibition ratio": 3.18}
{"smiles": "O=C(/C=C/c1ccccc1Br)Nc1ccc(C(=O)Nc2ccccc2)cc1", "note": "[NP16-XL-048, 3-(6-bromphenyl)-N-[(4-phenylamine-carbonyl)phenyl]-acrylamide]", "Relative ratio to NP16 based on inhibition ratio": 0.23}
{"smiles": "N#Cc1ccccc1/C=C/C(=O)Nc1ccc(C(=O)Nc2ccccc2)cc1", "note": "[NP16-XL-049, 3-(6-cyanophenyl)-N-[(4-phenylamine-carbonyl)phenyl]-acryiamide]", "Relative ratio to NP16 based on inhibition ratio": 0.21}
{"smiles": "CN1CCN(S(=O)(=O)c2ccc(NC(=O)/C=C/c3ccccc3Br)cc2)CC1", "note": "[NP16-XL-052, 3-(6-bromophenyl)-N-[4-(4-methyl-1,4-piperazine-1-sulfonyl)phenyl]-acrylamide]", "Relative ratio to NP16 based on inhibition ratio": 3.18}
{"smiles": "CN1CCN(S(=O)(=O)c2ccc(NC(=O)/C=C/c3c(F)cccc3F)cc2)CC1", "note": "[NP16-XL-053, 3-(2,6-difluoro-phenyl)-N-[4-(4-methyl-1,4-piperazine-1-sulfonyl)phenyl]-acrylamide]", "Relative ratio to NP16 based on inhibition ratio": 1.26}
{"smiles": "CN1CCN(S(=O)(=O)c2ccc(NC(=O)/C=C/c3ccccc3F)cc2)CC1", "note": "[NP16-XL-054, 3-(6-fluorophenyl)-N-[4-(4-methyl-1,4-piperazine-1-sulfonyl)phenyl]-acrylamide]", "Relative ratio to NP16 based on inhibition ratio": 2.86}
{"smiles": "CN1CCN(S(=O)(=O)c2ccc(NC(=O)/C=C/c3ccccc3C#N)cc2)CC1", "note": "[NP16-XL-055, 3-(6-cyanophenyl)-N-[4-(4-methyl-1,4-piperazine-1-sulfonyl)phenyl]-acrylamide]", "Relative ratio to NP16 based on inhibition ratio": 3.19}
{"smiles": "O=C(Nc1ccc(S(=O)(=O)N2CCCCC2)cc1)c1ncoc1-c1ccccc1", "note": "[NP16-XL-057, 4-(5-phenyl-1,3-oxazole)-N-[4-(1-piperidine-1-sulfonyl)phenyl]-amide]", "Relative ratio to NP16 based on inhibition ratio": 0.14}
{"smiles": "O=C(/C=C/c1c(Br)cccc1Br)Nc1ccc(S(=O)(=O)N2CCCCC2)cc1", "note": "[NP16-XL-058, 3-(2,6-dibromo-phenyl)-N-[4-(1-piperidine-1-sulfonyl)phenyl]-acrylamide]", "Relative ratio to NP16 based on inhibition ratio": 0.16}
{"smiles": "N#Cc1ccc(-c2cc(C(=O)Nc3ccc(S(=O)(=O)N4CCCCC4)cc3)no2)cc1", "note": "[NP16-XL-059, 4-[2-(4-cyano-phenyl)-1,5-oxazole]-N-[4-(1-piperidine-1-sulfonyl)phenyl]-amide]", "Relative ratio to NP16 based on inhibition ratio": 0.06}
{"smiles": "O=C(Nc1ccc(S(=O)(=O)N2CCCCC2)cc1)c1cc(-c2cccs2)on1", "note": "[NP16-XL-060, 4-[2-(thiophen-5-yl)-1,5-oxazole]-N-[4-(1-piperidine-1-sulfonyl)phenyl]-amide]", "Relative ratio to NP16 based on inhibition ratio": 0.06}
{"test_system": "not listed separately", "experiment": "Solubility in commonly used solvents for oral administration", "assay_type": "physicochemical", "details": "1:1 Labrasol ALF/PEG300, organic solvent or mixture", "units": {"solubility": "µg/mL"}}
{"smiles": "O=C(/C=C/c1ccccc1Cl)Nc1ccc(S(=O)(=O)N2CCCCC2)cc1", "note": "[NP16-XL-061, 3-(6-chlorophenyl)-N-[4-(1-piperidine-1-sulfonyl)phenyl]-acrylamide]", "solubility": 6340}
{"test_system": "not listed separately", "experiment": "Solubility in commonly used solvents for oral administration", "assay_type": "physicochemical", "details": "1:1 Labrasol ALF/PEG400, organic solvent or mixture", "units": {"solubility": "µg/mL"}}
{"smiles": "O=C(/C=C/c1ccccc1Cl)Nc1ccc(S(=O)(=O)N2CCCCC2)cc1", "note": "[NP16-XL-061, 3-(6-chlorophenyl)-N-[4-(1-piperidine-1-sulfonyl)phenyl]-acrylamide]", "solubility": 7600}
{"test_system": "not listed separately", "experiment": "Solubility in commonly used solvents for oral administration", "assay_type": "physicochemical", "details": "Labrasol ALF, oil or lipid", "units": {"solubility": "µg/mL"}}
{"smiles": "O=C(/C=C/c1ccccc1Cl)Nc1ccc(S(=O)(=O)N2CCCCC2)cc1", "note": "[NP16-XL-061, 3-(6-chlorophenyl)-N-[4-(1-piperidine-1-sulfonyl)phenyl]-acrylamide]", "solubility": 6080}
{"test_system": "not listed separately", "experiment": "Solubility in commonly used solvents for oral administration", "assay_type": "physicochemical", "details": "PEG300, organic solvent or mixture", "units": {"solubility": "µg/mL"}}
{"smiles": "O=C(/C=C/c1ccccc1Cl)Nc1ccc(S(=O)(=O)N2CCCCC2)cc1", "note": "[NP16-XL-061, 3-(6-chlorophenyl)-N-[4-(1-piperidine-1-sulfonyl)phenyl]-acrylamide]", "solubility": 7150}
{"test_system": "not listed separately", "experiment": "Solubility in commonly used solvents for oral administration", "assay_type": "physicochemical", "details": "PEG400, organic solvent or mixture", "units": {"solubility": "µg/mL"}}
{"smiles": "O=C(/C=C/c1ccccc1Cl)Nc1ccc(S(=O)(=O)N2CCCCC2)cc1", "note": "[NP16-XL-061, 3-(6-chlorophenyl)-N-[4-(1-piperidine-1-sulfonyl)phenyl]-acrylamide]", "solubility": 6940}
{"test_system": "not listed separately", "experiment": "Solubility in simulated gastric and intestinal fluids", "assay_type": "physicochemical", "details": "pH 2", "source_text": "(§1) The following table (Table 4) illustrates the solubility of two different compounds, NP16-XL-016 (hereinafter as “IM032”) and NP16-XL-061 (hereinafter as “IM032-C”), in two solutions with different pH values simulating the pH of gastric juice and human intestinal fluid using HCl and phosphate buffer respectively."}
{"smiles": "O=C(/C=C/c1ccccc1Cl)Nc1ccc(S(=O)(=O)N2CCCCC2)cc1", "note": "[NP16-XL-061, 3-(6-chlorophenyl)-N-[4-(1-piperidine-1-sulfonyl)phenyl]-acrylamide]", "Solubility in pH 2 (0.1N HCl + 0.1% Tween 80)-simulating human stomach": "<LOQ"}
{"test_system": "not listed separately", "experiment": "Solubility in simulated gastric and intestinal fluids", "assay_type": "physicochemical", "details": "pH 7.4, aqueous with cosolvent or surfactant or cyclodextrin; read-out: Solubility in pH 7.4 (KH2PO4 + 0.1% Tween 80)-simulating human intestine", "source_text": "as §1", "units": {"solubility": "µg/mL"}}
{"smiles": "O=C(/C=C/c1ccccc1Cl)Nc1ccc(S(=O)(=O)N2CCCCC2)cc1", "note": "[NP16-XL-061, 3-(6-chlorophenyl)-N-[4-(1-piperidine-1-sulfonyl)phenyl]-acrylamide]", "solubility": 0.0856}
